Laboratory results: publication PMC7529935 (European journal of medicinal chemistry, 2020)

Key:
[1] = test system: HIV/EBOV pseudovirions (EBOV GP); assay type: cell-based, Zaire Ebolavirus
[2] = test system: A549 cells
[3] = test system: HIV/MARV pseudovirions (MARV GP); assay: microbe, parasite or virus in culture; assay type: cell-based, Marburgvirus; details: Human immunodeficiency virus 1, A549, 48 h, read-out: IC50 for MARV

Structure (SMILES) | antiviral activity against EBOV [1] | antiviral activity (anti-filovirus, words) [1] | cytotoxicity [2] | IC50 [3] [nM]
Cc1c(Cc2ccccc2)c(=O)oc2cc(OCC(O)CNCCc3ccncc3)ccc12 (centres unmarked) [Compound 13, 3-benzyl-7-(2-hydroxy-3-((2-(pyridin-4-yl)ethyl)amino)propoxy)-4-methyl-2H-chromen-2-one] | best inhibitory activity on EBOV entry |  |  | 
Cc1cc(=O)oc2cc(OCC(O)CN3CCC(C(N)=O)CC3)ccc12 (centres unmarked) [Compound 19, 1-(2-hydroxy-3-((4-methyl-2-oxo-2H-chromen-7-yl)oxy)propyl)piperidine-4-carboxamide] |  | lost most of the activity |  | 
Cc1c(Cc2ccc(OC(F)(F)F)cc2)c(=O)oc2cc(OCC(O)CNc3nccs3)ccc12 (centres unmarked) [Compound 56, 7-(2-hydroxy-3-(thiazol-2-ylamino)propoxy)-4-methyl-3-(4-(trifluoromethoxy)benzyl)-2H-chromen-2-one] |  | strong activity | low cytotoxicity | 
Cc1c(Cc2ccc(OC(F)(F)F)cc2)c(=O)oc2cc(OCC(O)CN3CCC(C(N)=O)CC3)ccc12 (centres unmarked) [Compound 32, 1-(2-hydroxy-3-((4-methyl-2-oxo-3-(4-(trifluoromethoxy)benzyl)-2H-chromen-7-yl)oxy)propyl)piperidine-4-carboxamide] | strongest antiviral activity against EBOV |  | low cytotoxicity | 1500
NC(=O)C1CCN(CC(O)COc2ccc3c(C4CC4)cc(=O)oc3c2)CC1 (centres unmarked) [Compound 55, 1-(3-((4-cyclopropyl-2-oxo-2H-chromen-7-yl)oxy)-2-hydroxypropyl)piperidine-4-carboxamide] |  | lost most of the antiviral activity |  | 
